From US4118491A, “7-Acyl-3-(sulfaminoalkyl substituted tetrazolylthiomethyl)cephalosporins, antibacterial compositions containing them and methods of treating bacterial infections with them” (SmithKline Corporation, priority 1976, dated 1978)
Converted amounts (≈) assume the structure as drawn. Read-outs that look alike come from different tables or passages of the source.

How the values were obtained:
Entero. cloacae HH 31254 = experiment: MIC in vitro, Entero. cloacae HH 31254; type: cell-based; conditions: Enterobacter cloacae
Procedure: (§1) The compounds of Formula I have antibacterial activity against both Gram-positive and Gram-negative organisms. Minimum inhibitory concentrations (MIC's) range from 0.2 to >200 μg/ml in in vitro testing.

E. coli SK 12140 [1] = experiment: In vivo mouse protection, E. coli SK 12140; conditions: Escherichia coli
Procedure: as §1

E. coli HH 33779 = experiment: MIC in vitro, E. coli HH 33779; type: cell-based; conditions: for MIC: Escherichia coli
Procedure: as §1

Proteus morgani 179 = experiment: MIC in vitro, Proteus morgani 179; type: cell-based
Procedure: as §1

S. aureus HH 127 = experiment: MIC in vitro, S. aureus HH 127; type: cell-based; conditions: Staphylococcus aureus
Procedure: as §1

Kleb. pneumo. SK 4200 [2] = experiment: MIC in vitro, Kleb. pneumo. SK 4200; type: cell-based
Procedure: as §1

E. coli SK 12140 [3] = experiment: MIC in vitro, E. coli SK 12140; type: cell-based; conditions: Escherichia coli
Procedure: as §1

[4] = tested on: Serrati A marc. ATTC 13880; experiment: MIC in vitro, Serrati A marc. ATTC 13880; type: cell-based
Procedure: as §1

S. aureus SK 23390 = experiment: MIC in vitro, S. aureus SK 23390; type: cell-based; conditions: Staphylococcus aureus
Procedure: as §1

Salmonella ATCC 12176 = experiment: MIC in vitro, Salmonella ATCC 12176; type: cell-based; conditions: ATCC12176, Salmonella ATCC 12176
Procedure: as §1

[5] = tested on: Entero. aerog. ATTC 13048; experiment: MIC in vitro, Entero. aerog. ATTC 13048; type: cell-based
Procedure: as §1

Strep. faecalis HH 34358 = experiment: MIC in vitro, Strep. faecalis HH 34358; type: cell-based; conditions: for MIC: Enterococcus faecalis, HH34358, Strep. faecalis HH 34358
Procedure: as §1

Pseudo. aerug. HH 63 = experiment: MIC in vitro, Pseudo. aerug. HH 63; type: cell-based
Procedure: as §1

Kleb. pneumo. SK 1200 = experiment: MIC in vitro, Kleb. pneumo. SK 1200; type: cell-based
Procedure: as §1

S. villaluz SK 70390 = experiment: MIC in vitro, S. villaluz SK 70390; type: cell-based
Procedure: as §1

Shigella HH 117 = experiment: MIC in vitro, Shigella HH 117; type: cell-based; conditions: for MIC: Shigella, HH117, Shigella HH 117
Procedure: as §1

Kleb. pneumo. SK 4200 [6] = experiment: In vivo mouse protection, Kleb. pneumo. SK 4200; conditions: sc, Kleb. pneumo. SK 4200, s.c.
[7] = HH31254, Entero. cloacae HH 31254, read-out: MIC in vitro
[8] = SK12140, po, E. coli SK 12140, p.o.
[9] = SK12140, sc, E. coli SK 12140, s.c.
[10] = HH33779, E. coli HH 33779, read-out: MIC in vitro
[11] = HH127, S. aureus HH 127, read-out: MIC in vitro
[12] = Entero. aerog. ATTC 13048, read-out: MIC in vitro
[13] = SK12140, E. coli SK 12140, read-out: MIC in vitro
[14] = SK23390, S. aureus SK 23390, read-out: MIC in vitro
[15] = read-out: MIC in vitro, Entero. aerog. ATTC 13048
[16] = read-out: MIC in vitro, Kleb. pneumo. SK 1200

How did the MIC (Entero. cloacae HH 31254; [7]) turn out when `O=C(Cc1cccs1)NC1C(=O)N2C(C(=O)O)=C(CSc3nnnn3CCNS(=O)(=O)O)CSC12` (stereo not shown) [Compound 2, 7-(2-thienylacetamido)-3-[1-(2-sulfaminoethyl)tetrazol-5-ylthiomethyl]-3-cephem-4-carboxylic acid] was run?
The MIC was 6.3 µg/mL (≈ 11.2 µM).

And the ED50 (E. coli SK 12140 [1]; [8])?
The ED50 was over 50 mg/kg.

What about the ED50 (E. coli SK 12140 [1]; [9]) of the same molecule?
The ED50 was 1.02 mg/kg.

And the MIC (E. coli HH 33779; [10])?
Its MIC is 12.5 µg/mL (≈ 22.3 µM).

What about the MIC (Proteus morgani 179) of the same molecule?
The MIC was over 200 µg/mL.

What about the MIC (S. aureus HH 127; [11]) of the same molecule?
The MIC was 1.6 µg/mL (≈ 2.85 µM).

And the MIC (Kleb. pneumo. SK 4200 [2])?
Its MIC is 3.1 µg/mL (≈ 5.52 µM).

And the MIC (E. coli SK 12140 [3]; SK12140, read-out: MIC in vitro)?
The MIC was 3.1 µg/mL (≈ 5.52 µM).

What about the MIC [4] of the same molecule?
The MIC was over 200 µg/mL.

What about the MIC (S. aureus SK 23390; SK23390, read-out: MIC in vitro) of the same molecule?
The MIC was 0.4 µg/mL (≈ 0.712 µM).

And the MIC (Salmonella ATCC 12176)?
Its MIC is 12.5 µg/mL (≈ 22.3 µM).

What about the MIC [5, 12] of the same molecule?
The MIC was 25 µg/mL (≈ 44.5 µM).

What about the MIC (Strep. faecalis HH 34358) of the same molecule?
The MIC was 12.5 µg/mL (≈ 22.3 µM).

And the MIC (Pseudo. aerug. HH 63)?
Its MIC is over 200 µg/mL.

And the MIC (Kleb. pneumo. SK 1200; Kleb. pneumo. SK 1200, read-out: MIC in vitro)?
The MIC was 0.8 µg/mL (≈ 1.42 µM).

`O=C(Cn1cnnn1)NC1C(=O)N2C(C(=O)O)=C(CSc3nnnn3CCNS(=O)(=O)O)CSC12` (stereo not shown) [Compound 3, 7-(1-tetrazolylacetamido)-3-[1-(2-sulfaminoethyl)tetrazol-5-ylthiomethyl]-3-cephem-4-carboxylic acid] was tested. Which MIC (Entero. cloacae HH 31254; HH31254, read-out: MIC in vitro) did it give?
Its MIC is 0.8 µg/mL (≈ 1.46 µM).

And the MIC (S. villaluz SK 70390)?
Its MIC is over 200 µg/mL.

What about the ED50 (E. coli SK 12140 [1]; [9]) of the same molecule?
Its ED50 is 1.56 mg/kg.

What about the MIC (E. coli HH 33779; HH33779, read-out: MIC in vitro) of the same molecule?
Its MIC is 0.8 µg/mL (≈ 1.46 µM).

And the MIC (Proteus morgani 179)?
Its MIC is 200 µg/mL (≈ 365 µM).

What about the MIC (Shigella HH 117) of the same molecule?
The MIC was 0.4 µg/mL (≈ 0.731 µM).

And the MIC (S. aureus HH 127; HH127, read-out: MIC in vitro)?
Its MIC is 3.1 µg/mL (≈ 5.66 µM).

What about the MIC (Kleb. pneumo. SK 4200 [2]) of the same molecule?
Its MIC is 0.8 µg/mL (≈ 1.46 µM).

What about the MIC (E. coli SK 12140 [3]; [13]) of the same molecule?
The MIC was 0.8 µg/mL (≈ 1.46 µM).

And the MIC [4]?
The MIC was 200 µg/mL (≈ 365 µM).

And the MIC (S. aureus SK 23390; [14])?
Its MIC is 3.1 µg/mL (≈ 5.66 µM).

And the MIC (Salmonella ATCC 12176)?
The MIC was 0.4 µg/mL (≈ 0.731 µM).

And the MIC [5, 15]?
The MIC was 3.1 µg/mL (≈ 5.66 µM).

What about the MIC (Strep. faecalis HH 34358) of the same molecule?
The MIC was 50 µg/mL (≈ 91.3 µM).

And the MIC (Pseudo. aerug. HH 63)?
The MIC was over 200 µg/mL.

And the MIC (Kleb. pneumo. SK 1200; [16])?
The MIC was 0.4 µg/mL (≈ 0.731 µM).

Which results are given for `O=C(O)C1=C(CSc2nnnn2CCNS(=O)(=O)O)CSC2C(NC(=O)[C@H](O)c3ccccc3)C(=O)N12` (stereo partly drawn) [Compound 1, 7-D-mandelamido-3-[1-(2-sulfaminoethyl)tetrazol-5-ylthiomethyl]-3-cephem-4-carboxylic acid]?
MIC (Entero. cloacae HH 31254; [7]): 1.6 µg/mL (≈ 2.8 µM); ED50 (E. coli SK 12140 [1]; [8]): 50 mg/kg; ED50 (E. coli SK 12140 [1]; [9]): 0.46 mg/kg; MIC in vitro (E. coli HH 33779; E. coli HH 33779): 1.6 µg/mL (≈ 2.8 µM); MIC (E. coli HH 33779; [10]): 3.1 µg/mL (≈ 5.42 µM); MIC in vitro (Proteus morgani 179): 3.1 µg/mL (≈ 5.42 µM); MIC in vitro (Shigella HH 117; Shigella HH 117): 0.2 µg/mL (≈ 0.35 µM); MIC (Shigella HH 117): 0.4 µg/mL (≈ 0.7 µM); MIC (S. aureus HH 127; HH127, read-out: MIC in vitro): 3.1 µg/mL (≈ 5.42 µM); ED50 (Kleb. pneumo. SK 4200 [6]): 0.46 mg/kg; MIC (Kleb. pneumo. SK 4200 [2]): 1.6 µg/mL (≈ 2.8 µM); MIC in vitro (Kleb. pneumo. SK 4200 [2]): 0.8 µg/mL (≈ 1.4 µM); MIC (E. coli SK 12140 [3]; [13]): 0.8 µg/mL (≈ 1.4 µM); MIC [4]: 100 µg/mL (≈ 175 µM); MIC (S. aureus SK 23390; [14]): 0.8 µg/mL (≈ 1.4 µM); MIC [5, 12]: 50 µg/mL (≈ 87.5 µM); MIC [5, 15]: 6.3 µg/mL (≈ 11 µM); MIC (Strep. faecalis HH 34358): 100 µg/mL (≈ 175 µM); MIC in vitro (Strep. faecalis HH 34358; Strep. faecalis HH 34358): 50 µg/mL (≈ 87.5 µM); MIC (Pseudo. aerug. HH 63): > 200 µg/mL; MIC in vitro (Kleb. pneumo. SK 1200; Kleb. pneumo. SK 1200): 0.2 µg/mL (≈ 0.35 µM); MIC (Kleb. pneumo. SK 1200; [16]): 0.4 µg/mL (≈ 0.7 µM)

How did the MIC (Entero. cloacae HH 31254; [7]) turn out when `O=C(CSC(F)(F)F)NC1C(=O)N2C(C(=O)O)=C(CSc3nnnn3CCNS(=O)(=O)O)CSC12` (stereo not shown) [Compound 4, 7-trifluoromethylthioacetamido-3-[1-(2-sulfaminoethyl)tetrazol-5-ylthiomethyl]-3-cephem-4-carboxylic acid] was run?
The MIC was 1.6 µg/mL (≈ 2.76 µM).

What about the MIC (S. villaluz SK 70390) of the same molecule?
The MIC was over 200 µg/mL.

And the ED50 (E. coli SK 12140 [1]; [8])?
The ED50 was 50 mg/kg.

What about the ED50 (E. coli SK 12140 [1]; [9]) of the same molecule?
The ED50 was 1.82 mg/kg.

And the MIC (E. coli HH 33779; [10])?
The MIC was 1.6 µg/mL (≈ 2.76 µM).

What about the MIC (Proteus morgani 179) of the same molecule?
The MIC was over 200 µg/mL.

And the MIC (Shigella HH 117)?
Its MIC is 0.8 µg/mL (≈ 1.38 µM).

What about the MIC (S. aureus HH 127; [11]) of the same molecule?
Its MIC is 1.6 µg/mL (≈ 2.76 µM).

What about the MIC (Kleb. pneumo. SK 4200 [2]) of the same molecule?
Its MIC is 0.8 µg/mL (≈ 1.38 µM).

And the MIC (E. coli SK 12140 [3]; [13])?
The MIC was 0.8 µg/mL (≈ 1.38 µM).

And the MIC [4]?
The MIC was 100 µg/mL (≈ 173 µM).

What about the MIC (S. aureus SK 23390; [14]) of the same molecule?
Its MIC is 1.6 µg/mL (≈ 2.76 µM).

And the MIC (Salmonella ATCC 12176)?
The MIC was 0.4 µg/mL (≈ 0.69 µM).

What about the MIC [5, 15] of the same molecule?
The MIC was 6.3 µg/mL (≈ 10.9 µM).

What about the MIC (Strep. faecalis HH 34358) of the same molecule?
Its MIC is 100 µg/mL (≈ 173 µM).

And the MIC (Pseudo. aerug. HH 63)?
Its MIC is over 200 µg/mL.

What about the MIC (Kleb. pneumo. SK 1200; [16]) of the same molecule?
Its MIC is 0.2 µg/mL (≈ 0.345 µM).
